Test results reported in ChEMBL document CHEMBL1134141, “Diaminopurine-acridine heterodimers for specific recognition of abasic site containing DNA. Influence on the biological activity of the position of the linker on the purine ring” (Bioorg Med Chem Lett, 2001).

Columns and labels:
L1210 = experiment: The compound was evaluated for cytotoxicity against L1210 cell line; format: functional, cell-based; conditions: Mus musculus
A549 [1] = experiment: The compound was evaluated for cytotoxicity against A549 cell line; format: functional, cell-based; conditions: Homo sapiens
A549 [2] = experiment: Cytotoxicity of compound in synergy in BCNU (10 uM) against A549 cell line; format: functional, Homo sapiens
A549 [3] = experiment: Cytotoxicity of compound in synergy in 94% BCNU (10 uM) against A549 cell line; format: functional, Homo sapiens

| Structure (SMILES) | IC50 (L1210) | IC50 (A549 [1]) | Synergy (A549 [2]) | Synergy (A549 [3]) |
| --- | --- | --- | --- | --- |
| COc1ccc2nc3cc(Cl)ccc3c(NCCCC/N=C(\N)NCCCNc3[nH]c(N)nc4ncnc3-4)c2c1 | > 100 µM | 5 µM |  |  |
| COc1ccc2nc3cc(Cl)ccc3c(NCCCC/N=C(\N)NCCCNc3nc(N)c4[nH]cnc4n3)c2c1 | 36 µM | 5 µM |  |  |
| COc1ccc2nc3cc(Cl)ccc3c(NCCCC/N=C(\N)NCCCn3cnc4c(N)nc(N)nc43)c2c1 | 60 µM | 6.5 µM | 16% |  |
| COc1ccc2nc3cc(Cl)ccc3c(NCCCN(CCCN(CCn3cnc4c(N)ncnc43)C(=N)N)C(=N)N)c2c1 | 33 µM | 10 µM |  | 94% |
